In patent US20050054620A1, “Paricalcitol as a chemotherapeutic agent” (priority 2003, published 2005):

Tests used:
HT-29 cells = assay: Western blot of cell lysates; format: cell-based, human; conditions: 10^−7M, 72 hrs
Experimental: Western blot analysis was used to determine the levels of proteins involved in cell cycle and differentiation. […] After centrifugation at 15,000×g for 15 min at 4° C., the suspension was collected. Protein concentrations were quantitated using the Bio-Rad assay (Bio-Rad Labolatories, Hercules, Calif.). […] The blots were developed using the Supersignal West Pico Chemiluminescent Substrate Kit (Pierce, Rockford, Ill.). In FIG. 4B, HT-29 cells were exposed to either paricalcitol (10^−7M) or 1,25(OH)2D3(10^−7M). Cell lysates were prepared after 72 hrs of culture and analyzed by Western blot. The Western blot was probed sequentially with antibodies for p27KIP1, p21WAF1, cyclin D1, c-myc and E-Cadherin (antibodies from Santa Cruz Biotechnology) as described in Example II. Control cells were treated with vehicle alone. The quantity of protein was normalized by comparison to the amount of GAPDH. In FIG. 4C, HT-29 and SW837 cells were cultured with either paricalcitol (10^−7M) or 1,25(OH)2D3 (10^−7M) for 72 hrs. Cell lysates were prepared and analyzed by Western blot which was probed sequentially with antibodies to COX-1 and COX-2 (Santa Cruz Biotechnology). Control cells were treated with vehicle alone. The amount of protein was normalized by comparison to the quantity of GAPDH.

NCI-H929 cells [1] = assay: Western blot of cell lysates; format: cell-based, human; conditions: 10^−7M
Experimental: Western blot analysis was used to determine the levels of proteins involved in cell cycle and differentiation. […] After centrifugation at 15,000×g for 15 min at 4° C., the suspension was collected. Protein concentrations were quantitated using the Bio-Rad assay (Bio-Rad Labolatories, Hercules, Calif.). […] The blots were developed using the Supersignal West Pico Chemiluminescent Substrate Kit (Pierce, Rockford, Ill.). In FIG. 3C, NCI-H929 cells were treated with either paricalcitol (10^−7M) or 1,25(OH)2D3 (10^−7M) and cell lysates were prepared after 72 hrs. Cell lysates were used for Western blot analysis and probed sequentially with antibodies to p27KIP1, Bcl-2 and Bax. Control cells were treated with vehicle alone. Amount of protein was normalized by comparison to the amount of GAPDH. […] The Bcl-2 and Bax antibodies were obtained from Santa Cruz Biotechnology Inc., Santa Cruz, Calif.

HL-60 cells [2] = assay: Western blot of cell lysates; format: cell-based, human
Experimental: (§1) Western blot analysis was used to determine the levels of proteins involved in cell cycle and differentiation. For western blot analysis, cells were washed twice in PBS, suspended in lysis buffer [50 mM Tris (pH 8.0), 150 mM NaCl, 0.1% SDS, 0.5% sodium deoxycholate, 1% NP40, […] phenylmethylsulfonyl fluoride, […] aprotinin, […] pepstatin, and […] leupetin] and placed on ice for 30 min. After centrifugation at 15,000×g for 15 min at 4° C., the suspension was collected. Protein concentrations were quantitated using the Bio-Rad assay (Bio-Rad Labolatories, Hercules, Calif.). Whole lysates ([…]) were resolved by 4-15% SDS polyacrylamide gel, transferred to an immobilon polyvinylidene difuride membrane (Amersham Corp., Arlington Heights, Ill.), and probed sequentially with a number of antibodies (p21WAF1, p27KIP1, PTEN, and GAPDH, Santa Cruz Biotechnology Inc., Santa Cruz, Calif.). The blots were developed using the Supersignal West Pico Chemiluminescent Substrate Kit (Pierce, Rockford, Ill.).
(§2) Western blot analysis was performed as follows: cells were washed twice in PBS, suspended in lysis buffer (50 mM Tris at pH 8.0, 150 mM NaCl, 0.1% SDS, 0.5% sodium deoxycholate, 1% Nonidet P-40, phenylmethylsulfonyl fluoride at 100 μg/mL, aprotinin at 2 μg/mL, pepstatin at 1 μg/mL, and leupetin at 10 μg/mL), and placed on ice for 30 minutes. After centrifugation at 15,000×g for 15 minutes at 4° C., the suspension was collected. Protein concentrations were quantitated by using the Bio-Rad protein Assay Dye Reagent Concentrate (Bio-Rad Laboratories, Hercules, Calif.) according to the manufacture's recommendation. Whole cell lysates (40 μg) were resolved by SDS-polyacrylamide gel electrophoresis in a 4%-15% gel, transferred to a polyvinylidene difuride membrane (Immobilon, Amersham Corp., Arlington Heights, Ill.), and probed sequentially with antibodies against the following proteins: VDR, RXR, CEBPβ, Rb, Bcl-2, Bcl-XL, Bax, p-ERK, RARA, GAPDH (Santa Cruz Biotechnology Inc., Santa Cruz, CA). The blots were developed using the Supersignal West Pico Chemiluminescent Substrate Kit (Pierce, Rockford, Ill.).

NB-4 cells = assay: Western blot of cell lysates; format: cell-based, human; conditions: 10^−7 M, 72 hrs
Experimental: as §1, §2

[3] = humans, cited from earlier work
NCI-H929 cells [4] = assay: Cell cycle analysis by flow cytometry; format: cell-based, human; conditions: 10^−7M, 72 hrs
Experimental: For cell cycle analysis, cells were exposed to 10^−7M 1,25(OH)2D3, 10^−7M paricalcitol or vehicle control for either 3 or 4 days. Total cells, both in suspension and adherent, were collected, washed, suspended in cold PBS. Then cells were fixed in 75% chilled methanol and stained with propidium iodine. Cell cycle status was analyzed on a Becton Dickinson Flow Cytometer.
HCI-H929 cells were cultured with either paricalcitol (10^−7M) or 1,25(OH)2D3 (10^−7M) for 72 hrs, harvested and stained with propidium iodine (PI). Control cells were treated with vehicle alone.

NCI-H929 cells [5] = assay: TUNEL assay of apoptosis; format: cell-based, human; conditions: 10^−7M, 96 hrs, diluant control 4%
Experimental: In FIG. […] Results represent the mean±SD of three independent experiments. A TUNEL assay was performed for immunohistochemical detection and quantification of programmed cell death at the single cell level, based on labeling of DNA strand breaks using the In Situ Cell Death Detection, POD (Roche, Indianapolis, Ind.). Early apoptosis was also detected by measuring annexin V protein in the cell membrane using Annexin V-FITC Kit (CLONTECH, Palo Alto, Calif.) followed by flow cytometric analysis.

HL-60 cells [6] = assay: CD14 expression by flow cytometry; format: cell-based, human
Experimental: In order to measure cell surface CD14 antigen on HL-60 cells, promyelocytic leukemia cell line, HL-60, was treated with either 1,25(OH)2D3 or paricalcitol (10^−7M) for 4 days and examined for CD14 expression by flow cytometry using CD14 antibody (DAKO, Carpinteria, Calif.), as described previously (Hisatake et al., supra, 2001). Murine IgG1 antibody (DAKO) was used as a control.
Measurement of cell surface CD14 antigen on HL-60 cells by flow cytometry using CD14 antibody (DAKO, Carpinteria, Calif.), was determined as described previously (Hisatake et al. Blood 97:2427-2433 (2001)). Murine IgG1 antibody (DAKO) was used as a control.

SW837 cells = assay: Western blot of cell lysates; format: cell-based, human; conditions: 10^−7M, 72 hrs
Experimental: Western blot analysis was used to determine the levels of proteins involved in cell cycle and differentiation. […] After centrifugation at 15,000×g for 15 min at 4° C., the suspension was collected. Protein concentrations were quantitated using the Bio-Rad assay (Bio-Rad Labolatories, Hercules, Calif.). […] The blots were developed using the Supersignal West Pico Chemiluminescent Substrate Kit (Pierce, Rockford, Ill.). In FIG. 4C, HT-29 and SW837 cells were cultured with either paricalcitol (10^−7M) or 1,25(OH)2D3 (10^−7M) for 72 hrs. Cell lysates were prepared and analyzed by Western blot which was probed sequentially with antibodies to COX-1 and COX-2 (Santa Cruz Biotechnology). Control cells were treated with vehicle alone. The amount of protein was normalized by comparison to the quantity of GAPDH.

## C=C1/C(=C\C=C2/CCC[C@]3(C)[C@@H]([C@H](C)CCCC(C)(C)O)CC[C@@H]23)C[C@@H](O)C[C@@H]1O [1,25(OH)2D3]
HT-29 cells
  decrease of COX-2 expression: 50%
  decrease of c-myc expression: ~40%
  decrease of cyclin D1 expression: about 50%
  effect on COX-1 expression: suppressed COX-2 but not COX-1 expression
  increase of E-cadherin: about 6 fold
NCI-H929 cells [1]; 72 hrs
  decrease of Bcl-2 protein level: about 40%
  effect on levels of Bax: did not affect
NCI-H929 cells [1]; 96 hrs
  effect on levels of p21WAF1: little effect
  increase of p27KIP1 expression: about 3 fold
HL-60 cells [2]; 10^−7M, 72 hr
  induction of p21WAF1: approximately 7 fold
  induction of p27KIP1: about 6 fold
HL-60 cells [2]; 10^−7 M, 72 hrs
  PTEN expression (in words): induced PTEN expression
NB-4 cells
  PTEN expression (in words): induced PTEN expression
[3]; paricalcitol compared with 1,25(OH)2D3
  serum half-life: similar
[3]; typical dose 0.5 to 1.0 mg/every other day
  peak serum levels: 40 to 60 pg/mL
NCI-H929 cells [4]
  increase of accumulation in G1/G0 phase: 7%
NCI-H929 cells [4]; diluant control 4% sub-G1
  increase in apoptotic sub-G1 population: 16%
NCI-H929 cells [5]
  apoptotic cells (TUNEL): 20%
HL-60 cells [6]; 10^−7M, 96 hrs
  cells induced to express CD14: 54%
SW837 cells
  decrease of COX-2 expression: 50%
  effect on COX-1 expression: suppressed COX-2 but not COX-1 expression

## COc1cccc(-c2cc(=O)c3ccccc3o2)c1N [PD98059]
HL-60 cells [6]; PD98059 25 μM, 2 days
  monocytic differentiation (CD14) induced by paricalcitol and by the combination with arsenic trioxide: blocked
